The test system of data set [1] is protein extravasation induced by stimulation of the trigeminal ganglion. Kind of data set: Inhibition of neuronal protein extravasation in dura after electrical stimulation of trigeminal ganglion. The class given is in vivo, rat or guinea pig.
The conditions of data set [2]: cited from earlier work.
The next data set has as its system migraine. To be noted: literature; cited from earlier work.
The conditions of data set [3]: literature; cited from earlier work.
For data set [4], the system named is cephalic vascular smooth muscle. As to conditions: literature; cited from earlier work.
[5] abbreviates: Rattus norvegicus, iv, read-out: Inhibition of Protein Extravasation, i.v. ID50.

Structures are written as SMILES. Like-named read-outs stand apart in the source and are kept apart here.

With `Oc1ccc2[nH]cc(C3CCNCC3)c2c1` [Compound III], the ED50 in data set [1] (setting [5]) is 8.9e-06 µmol/kg.

`Cn1cc(CCN2CCC(c3c[nH]c4ccc(F)cc34)CC2)cn1` [Compound II]: in data set [1] (Rattus norvegicus, iv; read-out: Inhibition of Protein Extravasation, i.v. ID50), the ED50 is 8.6e-07 µmol/kg.

Take `CCN(CC)C1CCc2cccc(Cl)c2C1` (centres unmarked) [Compound IV]: the ED50 in data set [1] (setting [5]) came out at 0.00012 µmol/kg.

Regarding `CNS(=O)(=O)Cc1ccc2[nH]cc(CCN(C)C)c2c1` [Compound I], the ED50 in data set [1] (setting [5]) was found to be 2.6e-05 µmol/kg. The side effects result in data set [2] (due to affinity for a number of serotonin receptor subtypes) is reported as “undesirable side effects, particularly vasoconstriction”. In data set [2] (in vivo), the bioavailability entry is listed as “low bioavailability” and the duration of action result is on record as “relatively short duration of action”. The “efficacy in treatment of migraine” value in the data set on migraine is listed as “effective in the treatment of migraine”. The “crossing of the blood-brain barrier” value in data set [3] is on record as “does not cross the blood-brain barrier”. Further, the “contraction of cephalic vascular smooth muscle” value in data set [4] is “contract cephalic vascular smooth muscle”.

Consider `CN(C)C1CCc2[nH]c3ccc(O)cc3c2C1` (centres unmarked) [Compound V], for which the ED50 in data set [1] (setting [5]) is 8.7e-06 µmol/kg.

The record behind these values is patent US5708008A, “5-Substituted-3-(1,2,3,6-tetrahydropyridin-4-yl)-and 3-(piperidin-4-yl)-1H-indoles: new 5-HT1F agonists” (Eli Lilly and Company, priority 1996, dated 1998).
